Source: patent US20260240844A1, “INHIBITORS OF CHD1L AND USES THEREOF” (The Regents of the University of Colorado, a body corporate, priority 2023, published 2026)
Entries after “also recorded” stand apart in the source; their conditions may differ. Where two headings read alike, the source gives them in different places. Blank lines part the entries; values can stand above or below the compound they belong to.

Assays:
SUM149PT tumor organoids = assay: Tumor organoid cytotoxicity (CellTiter Glo 3D), SUM149PT; assay type: cell-based; settings: for IC50: Homo sapiens; for increase in potency of the chemotherapy: SUM149PT BRCA1 mutant tumor organoids, + 1.9 μM Compound 6; for improvement of IC50 potency: combined with Compound 6; for mean synergy score (Bliss): SUM149PT cells
Protocol: Tumor organoid culture—Cell lines were cultured as tumor organoids by seeding 2,000 to 5,000 cells/well into uncoated 96 well U-bottom Ultra Low Attachment Microplates (Corning) using their corresponding medium.
Luminescence was recorded using the EnVision plate reader (PerkinElmer) and values normalized to the controls using GraphPad Prism.

SUM149PT cells = assay: Cell cycle analysis by flow cytometry; assay type: cell-based
Protocol: Cells were then harvested by trypsinization, washed with PBS and fixed with 70% ice-cold ethanol for at least 2 h. The fixed cells were centrifuged at 300 g for 10 min, resuspended in PBS, centrifuged again, and stained in a 0.5 μg/mL DAPI solution in 0.1% Triton X-100-PBS for 30 min at RT. Samples were measured on a NovoCyte Penteon Cytometer (Agilent) and cell cycle distribution of single cells was analyzed using the automatic settings of FlowJo V10 (BD Biosciences).
Upon generation of DNA lesions, DNA damage checkpoints are also activated, which can lead to an arrest of the cell cycle, restraining chromosome segregation until the damaged DNA has been repaired. To study the effect of TNBC therapies and inhibition of CHD1L on the cell cycle, cells were stained with DAPI, and the cell subpopulations in G1, S and G2/M phases were analyzed by flow cytometry. […] Remarkably, the combination of these drugs with CHD1Li enhanced their effects, potentiating G2/M arrest caused by olaparib and G1 arrest caused by 5-FU (FIG. 23).

PAR in SUM149PT cells = assay: PAR immunofluorescence (nuclear / cytoplasmic PAR); assay type: cell-based; settings: for nuclear PAR (PARylation) / cytoplasmic PAR: SUM149PT cells, single agent; for nuclear PAR (PARylation): 4 h
Text: Inhibition of CHD1L promotes PAR translocation to the cytoplasm. The main role of PARP1 during the DDR is to detect and signal the recruitment of repair machinery to the sites of DNA damage. For that, PARP1/2 catalyze PARylation, which is a pivotal […] protein modification, consisting of the addition of ADP-ribose units to the carboxyl group of acidic residues such as glutamate or aspartate on target proteins by using NAD^+ as substrate. CHD1L is one of the proteins that requires binding to these PAR chains for its activation and subsequent chromatin remodeling. Using immunofluorescence of PAR, the effect of PARPi and CHD1Li on PARylation in SUM149PT cells was investigated. […] In addition, the effect of doxorubicin on nuclear PARylation was reverted by CHD1L inhibition, causing an increase of PAR in the cytoplasm (FIG. 25A-C).

AIF in SUM149PT cells = assay: AIF immunofluorescence in SUM149PT (SUM149) cells; assay type: cell-based; settings: for cytoplasmic AIF / nuclear AIF: SUM149PT cells, single agent, 18 h
Text: CHD1Li-mediated PAR translocation to the cytoplasm activates PARthanatos as a cell death mechanism. Parthanatos is a form a programmed cell death different from apoptosis and known to be mediated by PARP1 overactivation. The unique events occurring during parthanatos are: PARP1 rapid activation, accumulation of PAR and nuclear translocation of apoptosis inducing factor (AIF). Without being bound by any particular theory, accumulation of PAR in the cytoplasm caused by CHD1Li can also mediate parthanatos. To better understand the link between PAR translocation to the cytoplasm and cell death, immunofluorescence to measure the activation of caspase-3 and the subcellular localization of AIF after treatment with SOC drugs and Compound 6 in SUM49PT cells was used. […] Without being bound by any particular theory, this might be caused by the mitochondrial outer membrane permeabilization, which triggers release of mitochondrial proteins like AIF or cytochrome c, activating caspase-3 by its cleavage and leading to apoptosis. […] Moreover, when combining CHD1L inhibition with SOC drugs, the cell death mechanism shifts from apoptosis to parthanatos, evidenced by a significant increase in AIF nuclear translocation and decrease in activation of caspase-3 (FIG. 25D-E).
The ability of Compounds 12, 15 and 16 to localize AIF was tested in SUM149 (breast cancer) and MDA-MB-231 (TNBC) cell lines. A comparison of the relative distribution of AIF in nuclei (a) versus cytoplasm (b) in SUM149 cells and nuclei (c) versus cytoplasm (d) in MDA-MB-231 cells in the presence of 4 μM Compounds 12, 15 and 16 are shown in FIG. 28. […] Similarly, AIF concentration in the cytoplasm of MDA-MB-231 cells decreased by about 0.5 after administration with Compound 15. After treatment with Compound 16, the relative concentration of AIF in the nuclei of SUM149 cells increased by about 0.5-fold, and the concentration of AIF in the cytoplasm decreased by about 0.4-fold. In MDA-MB-231 cells, the relative concentration of AIF in the cytoplasm decreased by about 0.5-fold, while the concentration of AIF increased in the nuclei by about 0.1-fold.

cat-CHD1L = biological target: T1, cat-CHD1L (Homo sapiens, UniProt Q86WJ1); assay: CHD1L ATPase assay measured by ADP-Glo; assay type: biochemical
T1 construct: made in house; host or cells: Rosetta 2 (DE3) pLysS cells (E. coli)
T1 sequence (Q86WJ1 16-619): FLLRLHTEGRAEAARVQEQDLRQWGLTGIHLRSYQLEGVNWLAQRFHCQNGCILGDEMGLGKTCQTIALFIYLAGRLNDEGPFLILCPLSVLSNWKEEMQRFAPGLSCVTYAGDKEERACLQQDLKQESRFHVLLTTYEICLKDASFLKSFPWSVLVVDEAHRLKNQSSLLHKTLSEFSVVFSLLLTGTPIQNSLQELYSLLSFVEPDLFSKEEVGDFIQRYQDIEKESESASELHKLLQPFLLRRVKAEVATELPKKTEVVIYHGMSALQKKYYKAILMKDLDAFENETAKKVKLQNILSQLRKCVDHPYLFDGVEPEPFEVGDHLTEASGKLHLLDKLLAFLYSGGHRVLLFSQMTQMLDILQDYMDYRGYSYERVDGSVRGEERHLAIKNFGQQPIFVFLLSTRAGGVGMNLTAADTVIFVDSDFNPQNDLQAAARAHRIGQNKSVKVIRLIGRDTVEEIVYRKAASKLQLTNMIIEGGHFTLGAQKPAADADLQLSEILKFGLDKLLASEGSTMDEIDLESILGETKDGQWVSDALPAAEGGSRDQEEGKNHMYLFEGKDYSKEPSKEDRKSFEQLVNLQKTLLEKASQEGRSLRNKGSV

Structure (SMILES): O=c1[nH]cc(F)c(=O)[nH]1 [Compound 5-FU, 5-fluorouracil]
IC50 5-FU (μM) in SUM149PT (SUM149PT tumor organoids; Compound 13 0 μM): Resistant
IC50 (SUM149PT tumor organoids; SUM149PT, Compound 13 2 μM, read-out: IC50 5-FU (μM) in SUM149PT): 23.8 µM
IC50 (SUM149PT tumor organoids; SUM149PT, Compound 13 2.25 μM, read-out: IC50 5-FU (μM) in SUM149PT): 23 µM
IC50 (SUM149PT tumor organoids; SUM149PT, Compound 13 2.5 μM, read-out: IC50 5-FU (μM) in SUM149PT): 14.4 µM
increase in potency of the chemotherapy (SUM149PT tumor organoids): 10 fold
improvement of IC50 potency (SUM149PT tumor organoids; SUM149PT tumor organoids): 10 fold
increase in number of cells in G1 phase compared to untreated cells (SUM149PT cells; 24 h): 16%

inhibition of CHD1L ATPase activity (cat-CHD1L): potently inhibited
Structure (SMILES): Cc1cc(Nc2ccc(NC(=O)Cc3cccs3)cc2)nc(N2CCCC2)n1 [Compound 6, N-(4-((6-methyl-2-(pyrrolidin-1-yl)pyrimidin-4-yl)amino)phenyl)-2-(thiophen-2-yl)acetamide]
nuclear PAR (PARylation) (PAR in SUM149PT cells): caused the same effects as PARPi
cytoplasmic AIF (AIF in SUM149PT cells): decrease in cytoplasmic AIF
nuclear AIF (AIF in SUM149PT cells): significantly increasing AIF in the nucleus
IC50 (SUM149PT tumor organoids; SUM149PT, SUM149PT (BRCA1 mutant HR-deficient), read-out: IC50, tumor organoid viability, single agent): 1.7 µM
Bliss synergy score, cytotoxicity (SUM149PT tumor organoids; SUM149PT tumor organoids, Compound 6 combined with 5-FU): 59
cell cycle effect (SUM149PT cells; 24 hours, 0.2 μM): arrest in S and G2/M phases

Structure (SMILES): Cc1cc(Nc2ccc(NC(=O)Cc3cc(Br)cs3)cc2)nc(N2CCCC2)n1 [Compound 6.11, 2-(4-bromothiophen-2-yl)-N-(4-((6-methyl-2-(pyrrolidin-1-yl)pyrimidin-4-yl)amino)phenyl)acetamide]
PAR localization (PAR in SUM149PT cells; Compound 6.11 combined with doxorubicin): shifted PAR to the cytoplasm
cytoplasmic PAR (PAR in SUM149PT cells): increased cytoplasmic PAR
AIF nuclear translocation in combination (AIF in SUM149PT cells; Compound 6.11 combined with doxorubicin or irinotecan/SN-38): resulted in AIF nuclear translocation
cytoplasmic AIF (AIF in SUM149PT cells): did not affect cytoplasmic AIF
nuclear AIF (AIF in SUM149PT cells): increased nuclear AIF
IC50 (SUM149PT tumor organoids; SUM149PT, read-out: IC50, tumor organoid viability, single agent, SUM149PT (BRCA1 mutant HR-deficient)): ~1.7 µM
mean synergy score (Bliss) (SUM149PT tumor organoids; combined with 5-FU): about 60
mean synergy score (Bliss) (SUM149PT tumor organoids; combined with Olaparib): about 58
mean synergy score (Bliss) (SUM149PT tumor organoids; combined with docetaxel): about 56

Structure (SMILES): COc1cccc2c1C(=O)c1c(O)c3c(c(O)c1C2=O)C[C@@](O)(C(=O)CO)C[C@@H]3O[C@H]1C[C@H](N)[C@H](O)[C@H](C)O1 [doxorubicin]
cytoplasmic PAR (PAR in SUM149PT cells): no effect on cytoplasmic PAR
nuclear PAR (PARylation) (PAR in SUM149PT cells): increased PARylation in the nucleus
nuclear PAR (PARylation) (PAR in SUM149PT cells; listed as Doxorubicin): increased nuclear PAR
cytoplasmic PAR (PAR in SUM149PT cells; listed as Doxorubicin): did not elevate cytoplasmic PAR
nuclear AIF (AIF in SUM149PT cells): some increase of AIF in the nucleus
inhibition of CHD1L ATPase activity (cat-CHD1L): do not trap CHD1L or inhibit CHD1L ATPase activity
IC50 (SUM149PT tumor organoids; SUM149PT, Compound 13 0 μM, read-out: IC50 doxorubicin (μM) in SUM149PT): 0.505 µM
IC50 (SUM149PT tumor organoids; SUM149PT, Compound 13 2 μM, read-out: IC50 doxorubicin (μM) in SUM149PT): 0.0944 µM
IC50 (SUM149PT tumor organoids; SUM149PT, Compound 13 2.25 μM, read-out: IC50 doxorubicin (μM) in SUM149PT): 0.016 µM
IC50 (SUM149PT tumor organoids; SUM149PT, Compound 13 2.5 μM, read-out: IC50 doxorubicin (μM) in SUM149PT): 0.279 µM
IC50 (SUM149PT tumor organoids; SUM149PT tumor organoids, 72 h, + non-lethal doses of Compound 6, read-out: IC50 of the drug in combination): 0.28 ± 0.01 µM
increase in potency of the chemotherapy (SUM149PT tumor organoids): 20 fold
improvement of IC50 potency (SUM149PT tumor organoids; SUM149PT tumor organoids): 2 fold

Structure (SMILES): O=C(c1cc(Cc2n[nH]c(=O)c3ccccc23)ccc1F)N1CCN(C(=O)C2CC2)CC1 [olaparib]
cytoplasmic PAR (PAR in SUM149PT cells): increased cytoplasmic PAR; also recorded: increase in cytoplasmic PAR
nuclear PAR (PARylation) (PAR in SUM149PT cells): inhibition of nuclear PARylation
cytoplasmic AIF (AIF in SUM149PT cells): increased cytoplasmic AIF; also recorded: increase in the AIF intensity in the cytoplasm
nuclear AIF (AIF in SUM149PT cells): did not enhance nuclear AIF; also recorded: no translocation of this protein to the nucleus
inhibition of CHD1L ATPase activity (cat-CHD1L): do not trap CHD1L or inhibit CHD1L ATPase activity
IC50 (SUM149PT tumor organoids; SUM149PT, 72 h, read-out: IC50 of the drug alone, SUM149PT tumor organoids, 72 h): 170 ± 27 µM
IC50 (SUM149PT tumor organoids; SUM149PT, 72 h, read-out: IC50 of the drug in combination, SUM149PT tumor organoids, 72 h, + non-lethal doses of Compound 6): 19 ± 0.56 µM
IC50 (SUM149PT tumor organoids; SUM149PT, read-out: IC50 Olaparib (μM) in SUM149PT, Compound 13 0 μM): 400 µM
IC50 (SUM149PT tumor organoids; SUM149PT, read-out: IC50 Olaparib (μM) in SUM149PT, Compound 13 2 μM): 41.8 µM
IC50 (SUM149PT tumor organoids; SUM149PT, read-out: IC50 Olaparib (μM) in SUM149PT, Compound 13 2.25 μM): 13.4 µM
IC50 (SUM149PT tumor organoids; SUM149PT, read-out: IC50 Olaparib (μM) in SUM149PT, Compound 13 2.5 μM): 19 µM
increase in potency of the chemotherapy (SUM149PT tumor organoids): 10 fold
improvement of IC50 potency (SUM149PT tumor organoids; SUM149PT tumor organoids): 9 fold
increase in the percentage of cells in the G2/M phase (SUM149PT cells; 24 h): 2 fold
